# Patent US20240228504A1, “SUBSTITUTED TRICYCLIC AMIDES, ANALOGUES THEREOF, AND METHODS USING SAME” (Arbutus Biopharma Corporation, priority 2020, published 2024)
# Tested on: HBV rcDNA in HepDE19 cells
# Experiment: HepDE19 assay with bDNA quantitation of HBV rcDNA
# Assay type: cell-based, hepatitis B virus
# Conditions: HepDE19 assay, inhibition of rcDNA formation, bDNA quantitation; read-out: DE-19bDNA EC50
row,Compound,EC50 [nM]
1,"CN(C(=O)c1ccc2c(c1)CCC2)C1COCc2[nH]c(=O)c3cc(F)ccc3c21 (single isomer, unassigned) [Compound 442, N-(8-Fluoro-6-oxo-1,4,5,6-tetrahydro-2H-pyrano[3,4-c]isoquinolin-1-yl)-N-methyl-2,3-dihydro-1H-indene-5-carboxamide]",19000
2,"CN(C(=O)c1cc2c(C(F)F)cc(F)cc2[nH]1)C1CNCc2[nH]c(=O)c3cc(F)ccc3c21 (single isomer, unassigned) [Compound 259, 4-(Difluoromethyl)-6-fluoro-N-(8-fluoro-6-oxo-1,2,3,4,5,6-hexahydrobenzo[c][1,7]naphthyridin-1-yl)-N-methyl-1H-indole-2-carboxamide]",5100
3,"CN(C(=O)c1cc2ccc(F)cc2[nH]1)C1CNCc2[nH]c(=O)c3cc(F)c(F)cc3c21 (single isomer, unassigned) [Compound 108, N-(8,9-Difluoro-6-oxo-1,2,3,4,5,6-hexahydrobenzo[c][1,7]naphthyridin-1-yl)-6-fluoro-N-methyl-1H-indole-2-carboxamide]",1600
4,"CN(C(=O)c1cc2cccc(F)c2[nH]1)C1COCc2[nH]c(=O)c3cc(F)c(F)cc3c21 (single isomer, unassigned) [Compound 39, N-(8,9-Difluoro-6-oxo-1,4,5,6-tetrahydro-2H-pyrano[3,4-c]isoquinolin-1-yl)-7-fluoro-N-methyl-1H-indole-2-carboxamide]",770
5,"CN(C(=O)c1cc2cccc(F)c2[nH]1)C1CNCc2[nH]c(=O)c3cc(F)c(F)cc3c21 (single isomer, unassigned) [Compound 114, N-(8,9-Difluoro-6-oxo-1,2,3,4,5,6-hexahydrobenzo[c][1,7]naphthyridin-1-yl)-7-fluoro-N-methyl-1H-indole-2-carboxamide]",20
6,"CCc1cc(F)cc2[nH]c(C(=O)N(C)C3CNCc4[nH]c(=O)c5cc(F)c(F)cc5c43)cc12 (single isomer, unassigned) [Compound 401, N-(8,9-Difluoro-6-oxo-1,2,3,4,5,6-hexahydrobenzo[c][1,7]naphthyridin-1-yl)-4-ethyl-6-fluoro-N-methyl-1H-indole-2-carboxamide]",2500
7,"CCc1cc(F)cc2[nH]c(C(=O)N(C)C3COCc4[nH]c(=O)c5cc(F)ccc5c43)cc12 (single isomer, unassigned) [Compound 394, 4-Ethyl-6-fluoro-N-(8-fluoro-6-oxo-1,4,5,6-tetrahydro-2H-pyrano[3,4-c]isoquinolin-1-yl)-N-methyl-1H-indole-2-carboxamide]",460
8,"CN(C(=O)c1cc2ccccc2[nH]1)[C@@H]1CCC(O)c2[nH]c(=O)c3cc(F)c(F)cc3c21 (single isomer, unassigned) [Compound 504]",580
9,"CN(C(=O)c1cc(F)c(Cl)c(F)c1)C1CNCc2[nH]c(=O)c3cc(F)c(F)cc3c21 (single isomer, unassigned) [Compound 169, 4-Chloro-N-(8,9-difluoro-6-oxo-1,2,3,4,5,6-hexahydrobenzo[c][1,7]naphthyridin-1-yl)-3,5-difluoro-N-methylbenzamide]",40
10,"CN(C(=O)c1cc2ccc(F)cc2[nH]1)C1COCc2[nH]c(=O)c3cc(F)ccc3c21 (single isomer, unassigned) [Compound 31, 6-Fluoro-N-(8-fluoro-6-oxo-1,4,5,6-tetrahydro-2H-pyrano[3,4-c]isoquinolin-1-yl)-N-methyl-1H-indole-2-carboxamide]",1200

# Same assay, conditions: Hepatitis B virus, HepDE19, HepDE19 assay, inhibition of rcDNA formation, bDNA quantitation; read-out: DE-19bDNA EC50
row,Compound,EC50 [nM]
1,"COc1n[nH]c2ccc(C(=O)N(C)[C@@H]3COCc4[nH]c(=O)c5cc(F)c(F)cc5c43)cc12 [Compound 369, (S)-N-(8,9-Difluoro-6-oxo-1,4,5,6-tetrahydro-2H-pyrano[3,4-c]isoquinolin-1-yl)-3-methoxy-N-methyl-1H-indazole-5-carboxamide]",6100
2,"CN(C(=O)c1cc2cnc(Cl)cc2[nH]1)[C@@H]1COCc2[nH]c(=O)c3cc(F)c(F)cc3c21 [Compound 309, (S)-6-chloro-N-(8,9-difluoro-6-oxo-1,4,5,6-tetrahydro-2H-pyrano[3,4-c]isoquinolin-1-yl)-N-methyl-1H-pyrrolo[3,2-c]pyridine-2-carboxamide]",50
3,"CN(C(=O)c1cccc(F)c1)[C@@H]1COCc2[nH]c(=O)c3cc(F)c(F)cc3c21 [Compound 127, (S)-N-(8,9-Difluoro-6-oxo-1,4,5,6-tetrahydro-2H-pyrano[3,4-c]isoquinolin-1-yl)-3-fluoro-N-methylbenzamide]",380
4,"CN(C(=O)c1ccc2scnc2c1)C1CNCc2[nH]c(=O)c3cc(F)c(F)cc3c21 (single isomer, unassigned) [Compound 463, N-(8,9-difluoro-6-oxo-1,2,3,4,5,6-hexahydrobenzo[c][1,7]naphthyridin-1-yl)-N-methylbenzo[d]thiazole-5-carboxamide]",2000
5,"CN(C(=O)c1cc2c(Br)c(Cl)ncc2[nH]1)[C@@H]1COCc2[nH]c(=O)c3cc(F)c(F)cc3c21 [Compound 384, (S)-4-Bromo-5-chloro-N-(8,9-difluoro-6-oxo-1,4,5,6-tetrahydro-2H-pyrano[3,4-c]isoquinolin-1-yl)-N-methyl-1H-pyrrolo[2,3-c]pyridine-2-carboxamide]",20
6,"CN(C(=O)c1cc2c(C#N)cc(F)cc2[nH]1)[C@@H]1COCc2[nH]c(=O)c3cc(F)c(F)cc3c21 [Compound 341, (S)-4-Cyano-N-(8,9-difluoro-6-oxo-1,4,5,6-tetrahydro-2H-pyrano[3,4-c]isoquinolin-1-yl)-6-fluoro-N-methyl-1H-indole-2-carboxamide]",30
7,"CN(C(=O)c1cc2cc(F)c(C(F)F)cc2[nH]1)[C@@H]1COC(=O)c2[nH]c(=O)c3cc(F)c(F)cc3c21 [Compound 478, (S)-N-(8,9-Difluoro-4,6-dioxo-1,4,5,6-tetrahydro-2H-pyrano[3,4-c]isoquinolin-1-yl)-6-(difluoromethyl)-5-fluoro-N-methyl-1H-indole-2-carboxamide]",10
8,"CN(C(=O)[C@H](O)c1ccccc1)[C@@H]1COCc2[nH]c(=O)c3cc(F)c(F)cc3c21 [Compound 96, (R)-N-((S)-8,9-Difluoro-6-oxo-1,4,5,6-tetrahydro-2H-pyrano[3,4-c]isoquinolin-1-yl)-2-hydroxy-N-methyl-2-phenylacetamide]",10000
9,"CN(C(=O)c1cc2cc(F)cnc2[nH]1)[C@@H]1COCc2[nH]c(=O)c3cc(F)c(F)cc3c21 [Compound 190, (S)-N-(8,9-Difluoro-6-oxo-1,4,5,6-tetrahydro-2H-pyrano[3,4-c]isoquinolin-1-yl)-5-fluoro-N-methyl-1H-pyrrolo[2,3-b]pyridine-2-carboxamide]",330
10,"CN(C(=O)c1ccc2ocnc2c1)[C@@H]1COCc2[nH]c(=O)c3cc(F)c(F)cc3c21 [Compound 426, (S)-N-(8,9-Difluoro-6-oxo-1,4,5,6-tetrahydro-2H-pyrano[3,4-c]isoquinolin-1-yl)-N-methylbenzo[d]oxazole-5-carboxamide]",90
11,"CN(C(=O)c1c[nH]c(=O)c(C(F)(F)F)c1)[C@@H]1COCc2[nH]c(=O)c3cc(F)c(F)cc3c21 [Compound 193, (S)-N-(8,9-Difluoro-6-oxo-1,4,5,6-tetrahydro-2H-pyrano[3,4-c]isoquinolin-1-yl)-N-methyl-6-oxo-5-(trifluoromethyl)-1,6-dihydropyridine-3-carboxamide]",3200
